Assay results from patent EP2662079A1 (Ordway Research Institute, Inc., priority 2012, dated 2013).
Several values for one entry are separate records, joined by “and”; a condition that tells them apart may be missing. Equal values may be shown once.

Assays:
GL261 tumor cells = assay: 44°C hyperthermia survival; format: cell-based, murine
Procedure: Additionally, Tetrac sensitizes GL261 cells in hyperthermic conditions. Graded heat treatment of GL261 tumor cells with 44°C was given, without and with Tetrac. Tetrac increased cell killing as compared to control cells alone, by the equivalent of about 1°C (i.e., 44°C plus Tetrac is the equivalent of 45°C without Tetrac). (See Figure 63).

GL261 cells [1] = assay: Potentially lethal damage repair (PLDR); format: cell-based, murine
Procedure: PLDR was also measured using the 10% survival level in both control and Tetrac treated-cells, and was also done for both exponentially growing and plateau phase cells. The total 10% survival dose was given, and then cells were placed back into the 37°C incubator for various periods of time. At 0, 0.5, 1.0, 1.5, 2.0, 3.0, 4.0, 6.0, 8.0, and 10.0 hours, flasks were removed, and processed for survival assessment.
To investigate the effects of Tetrac on SLDR and PLDR, cells were chosen that had been given a one-hour treatment with Tetrac at two different times, i.e., at 70 and 270 hours post-seeding).

GL261 cells [2] = assay: Cell multiplicity after Tetrac exposure; format: cell-based, murine; settings: after one hour exposure to Tetrac
Procedure: Cell multiplicity (CM) was determined from Giemsa stained slides by counting the number of cells per microcolony under 20 X magnification. At least 400 microcolonies were counted.
The length of time that Tetrac biologically affected GL261 cells was also determined. To do this, the multiplicity relationship defined above was utilized. Tetrac was added to cells one hour prior to the determination of the multiplicity. After the exposure of exponentially growing GL261 cells to Tetrac, the Tetrac containing medium was removed from GL261 cells, which contained an unknown residual and fresh medium (without Tetrac) was added. As a function of time (i.e., 0, 1, 2, 3, 4, 6, 8, and 10 hours, and 1-6 days), the cells, containing an unknown residual amount of remaining Tetrac, were then processed for determination of the multiplicity index (i.e. the number of cells per microcolony).

[3] = tested on: GL261 murine brain tumor cells; assay: Clonogenic survival after single doses of 250 kVp x-rays; format: cell-based; settings: for α (Gy^-1) / β (Gy^-2): LQ; for SF2: survival at 2 Gy
Procedure: To irradiate 25 cm^2 flasks, an x-ray machine was used and (Philips 250 kVp Therapeutic X-ray Machine, Einhoven, Germany) operated at 250 kVp and 15 mA with added filtration of 0.4 mm Thoreaus filter. The target to source distance was approximately 30 cm. Dose rates were measured using an R-meter (Victoreen R-meter, Cleveland, OH), and converted to absorbed (Gy) doses using appropriate temperature, pressure, and R to Gy conversion factors. The dose rate was 1 Gy per min. Flasks were irradiated at ambient temperature.
Experimental cells and FCs were added to treatment flasks before irradiation, and were then allowed to attach to the surfaces of the flask and incubated at 37°C for 1 hour. After incubation the flasks were irradiated using the 250 kVp x-ray source.
For […] analyses, survival data lying at or below 36.8% survival were analyzed by using the log fractional survival (log FxS) versus dose (D). Data were fit using linear regression analysis (SigmaPlot, V. 10, Systat Corp., Point Richmond, CA) to obtain the Y-intercept (or n, the extrapolation number) and the slope (1/D0), and their 95% confidence limits. (See Goldstein, A. In: Biostatistics, New York, The MacMillan Co., 1964, p. 140-146).. The Do value (Gy) is defined as the inverse of the slope, and the corrected Dq value (Gy) was then defined using the relationship: Dq(Gy) = ln n x D0 (Gy) [formula] The 95% confidence limits on Dq were defined using error propagation. (See Chase, et al., In: Principles of Radioisotope Methodology. Minneapolis, MN. Burgess Publ. Co., 1962, p. 68, 87-90).
For LQ analyses, data lying between a fractional survival of 1.00 and 0.05 were used. The fractional survival data at each dose were transformed using the relationship (-In FxS/D) and plotted against dose (D). A regression analysis was performed to yield the LQ equation along with their 95% confidence limit values using a t-table with the appropriate (N-1) degrees of freedom. (See Goldstein, A. In: Biostatistics, New York, The MacMillan Co., 1964, p. 140-146).
To determine the Tetrac modification factor (TMF), the survival at 2 Gy obtained for control cells was divided by the survival at 2 Gy for Tetrac treated cells. The 95% confidence limits on the ratio were determined using error propagation techniques. (See Chase, et al. In: Princiiples of Radioisotope Methodology, Minneapolis, MN, Burgress Publ. Co., 1962, p. 68, 87-90).

U87MG cells = assay: Neutral comet assay (DNA double-strand breaks); format: cell-based, human
Procedure: For the comet assay studies of induction and repair of DSBs in U87MG cells, cells were treated as described above. However, for the single dose induction ofDSBs doses ranged from 0-30 Gy, and for the study of the repair ofDSBs in irradiated cells, a large single dose of 60 Gy requiring approximately 1 h of irradiation time was given. Appropriate temperature controls (on ice) were run to insure that no decrement in survival was produced by the 1 h exposure to 0°C.
U87MG cells on plastic slides were exposed to 2 nM Tetrac for 1 h at 37°C. These slides were then placed on crushed ice and irradiated with doses from 0 to 75 Gy. Slides were immersed in lysing solution at 50°C for 2 hours. Slides were washed, and placed into a gel electrophoresis unit. Electrophoresis was carried out at 0.66 V/cm for 25 min. Cells were stained with ethidium bromide and image analysis was done using an epifluoresence microscope at a total magnification of 400 X. We also used an excitation filter of 515-535 nm and a barrier filter at 590 nm. The mean tail moment (TM) which is expressed in arbitrary units was then calculated. TM was calculated using a CCD camera and software. Approximately 350 comets were analyzed per condition.

[4] = Exponential Phase (with Tetrac)
[5] = Unfed plateau Phase (with Tetrac)
[6] = SHMT, Unfed plateau Phase (with Tetrac)
[7] = single dose of 30 Gy, Tetrac-treated cells

For `O=C(O)Cc1cc(I)c(Oc2cc(I)c(O)c(I)c2)c(I)c1` [Tetrac, 3,3',5,5'-tetraiodothyroacetic acid], the “increase in cell killing as temperature equivalent” value (GL261 tumor cells; 44°C plus Tetrac) was “about 1 °C”, the sensitization factor (GL261 tumor cells; Tetrac 2uM, 20 minutes at 44°C) was 3.8 and the “factor by which Tetrac inhibited PLDR” value (GL261 cells [1]; exponential cells) was 1.9. For the same compound, the “factor by which Tetrac decreased PLDR expression” value (GL261 cells [1]; plateau phase cells) was 3.4, the “time for a 50% return of the cell multiplicity factor towards control level” value (GL261 cells [2]) was “approximately 2.5 days” and the “time post Tetrac treatment at which decrease in the CM factor was recorded at 50%” value (GL261 cells [2]) was 60 h. The “α (Gy^-1)” value [3, 4] was 0.930 Gy^-1, the “β (Gy^-2)” value [3, 4] was 0.003 Gy^-2 and the “α (Gy^-1)” value [3, 5] was 1.157 Gy^-1. The “β (Gy^-2)” value [3, 5] was 0.066 Gy^-2, the “D0 (Gy)” value ([3]; SHMT, Exponential phase (with Tetrac)) was 1.08 Gy and 1.08 (0.09). Gy and the “D0 (Gy)” value [3, 6] was 0.75 Gy. The “Dq (Gy)” value [3, 6] was 0.00 Gy, the “sensitization of oxic and hypoxic cells” value ([3]; Tetrac 2µM, graded doses of 250 kVp x-rays (Figure 60)) was “sensitize both oxic and hypoxic cells equally” and the “survival at 2 Gy” value ([3]; Tetrac treated cells (non-Tetrac treated 32%)) was 13%. The “increase of the Do value” ([3]; exponentially growing cells) was 15%, the “reduction of the Dq value” ([3]; exponentially growing cells) was 100% and the “reduction of the extrapolation number” value ([3]; exponentially growing cells) was 93%. The reduction of n ([3]; plateau phase cells) was 93%, the “reduction of the Do” value ([3]; plateau phase cells) was 6% and the “reduction of the Dq” value ([3]; plateau phase cells) was 100%. For the same compound, the SF2 [3, 4] was 14.2%, the SF2 [3, 5] was 7.62 (6.82 - 8.51) % and the “increase of the slow repair part of the curve” value (U87MG cells) was “approximately 2.2 fold”. For the same compound, the “sensitization factor (steady-state DSB levels)” value (U87MG cells; 0 Gy) was 2.2, the mean tail moment (U87MG cells; 0 radiation dose, 1 h Tetrac at 37°C, arbitrary units) was 12.4 and 13.1 and the “slope of DSB repair versus time” value (U87MG cells; after 30 Gy of x-rays (control -4.36)) was -1.20. The “relative percentage of fast repair” value (U87MG cells; [7]) was 16%, the “relative percentage of slow repair” value (U87MG cells; [7]) was 84% and the “inhibition of the repair of DNA double strand breaks” value (U87MG cells; vs control U87MG cells) was 72.5%.
